In experiment [1] the target is benzodiazepine site on the GABAA receptor. Kind of experiment: [3H]-flumazenil binding assay (GABA-benzodiazepine binding assay). Also on record: species or system rat. The note with it: for Ki: as worded in text b6; for IC50: rat brain cortex, 0.5 nM [3H]-flumazenil, mean ± standard error, n.d. = not detected in tested concentrations below 10 mM; for affinity for the benzodiazepine site (in words): [3H]-flumazenil binding assay. The protocol:
(§1) The GABA binding assay was carried out according to a previously published method, with modifications. To a suspension of rat brain cortex (500 µL) was added test solution (25 µL) and [^3H]-flumazenil (25 µL, Ro 15-1788, Perkin-Elmer Life Science) to 0.5 nM final concentration in the assay. The suspension was mixed and incubated for 40 min on ice and poured directly onto glass fiber filters (Adventic, GC-50) under suction, in an ice-bath, followed by washing with ice-cold Tris-citrate buffer. The amount of radioactivity was determined by liquid scintillation counting. Non-specific binding was determined using diazepam (1 µM final concentration in the assay) and flumazenil was used as positive control. Specific binding was calculated as total binding minus non-specific binding. All experiments were done in triplicate. The serotonin re-uptake inhibition assay was performed according to previously described methods.

Experiment [2] concerns the target serotonin re-uptake transport protein (Rattus norvegicus, UniProt P31652). Kind of experiment: [3H]-citalopram binding assay (serotonin re-uptake inhibition assay). How it is done:
as §1

Experiment [3] deals with MES seizures in mice. Set-up: method as in doi:10.1016/S0165-7208(06)80055-3. The following applies: cited from earlier work.
The test system of experiment [4] is GABAA receptor. Set-up: method as in PMID 1332016. The following applies: cited from earlier work.
The mark [5] stands for this setting: mean ± standard error, n.d. = not detected in tested concentrations below 10 mM, read-out: [3H]-citalopram binding assay IC50.
The mark [6] stands for this setting: read-out: Ki, serotonin re-uptake transport protein.

Molecules are shown by their SMILES. “And” between values parts separate entries of the source, which are not always exact repeats. Equal entries are not always repeated. Where two headings read alike, the source gives them in different places.

This is an account of results in article PMC6255099, “Amides from Piper capense with CNS Activity – A Preliminary SAR Analysis” (Molecules, 2009).

For orientation: Ki means the dissociation constant of the complex between target and ligand, obtained from inhibition or displacement.

Chain of serotonin re-uptake transport protein (P31652 whole entry): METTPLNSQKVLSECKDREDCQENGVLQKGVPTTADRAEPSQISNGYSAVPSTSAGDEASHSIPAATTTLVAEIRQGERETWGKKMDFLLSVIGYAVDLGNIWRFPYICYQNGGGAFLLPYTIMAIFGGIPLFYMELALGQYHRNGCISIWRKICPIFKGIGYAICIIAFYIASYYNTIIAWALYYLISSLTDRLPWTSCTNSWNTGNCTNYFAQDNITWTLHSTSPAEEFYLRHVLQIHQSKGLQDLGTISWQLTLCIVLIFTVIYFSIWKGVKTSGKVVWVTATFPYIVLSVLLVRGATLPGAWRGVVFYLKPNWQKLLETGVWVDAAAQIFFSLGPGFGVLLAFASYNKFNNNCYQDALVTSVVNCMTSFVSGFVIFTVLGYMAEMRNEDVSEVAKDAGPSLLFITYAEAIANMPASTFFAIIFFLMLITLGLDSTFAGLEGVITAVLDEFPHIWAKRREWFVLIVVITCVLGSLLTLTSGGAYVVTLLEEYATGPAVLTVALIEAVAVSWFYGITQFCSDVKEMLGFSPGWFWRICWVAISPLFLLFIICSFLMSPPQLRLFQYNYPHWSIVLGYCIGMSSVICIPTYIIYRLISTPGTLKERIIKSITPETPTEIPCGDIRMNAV

In the case of `O=C(/C=C/C=C/c1ccc2c(c1)OCO2)N1CCCCC1` [Compound 1, Piperine], in experiment [1], the Ki was 1175 ± 3 µM; the IC50 is 1200 µM and 1180 µM.

`O=C(/C=C/CCc1ccc2c(c1)OCO2)N1CCCCC1` [Compound 2, 4,5-Dihydropiperine] displayed a Ki in experiment [1] of 1054 ± 4 µM. Also, the IC50 in experiment [1] was 1000 µM and 1050 µM; in experiment [2] (setting [5]), 2980 ± 1630 µM; in experiment [2] (setting [6]), 2980 ± 1630 µM.

As to `O=C(CCCCc1ccc2c(c1)OCO2)N1CCCCC1` [Compound 4, Tetrahydropiperidine], the IC50 in experiment [2] (setting [5]) was found to be 585 ± 1520 µM.

In the case of `O=C(/C=C/c1ccc2c(c1)OCO2)N1CCCCC1` [Compound 5, Antiepilepsirine], the “affinity for the benzodiazepine site (in words)” value (shortened to “affinity”) in experiment [1] was “no affinity”.

For `O=C(CCc1ccc2c(c1)OCO2)N1CCCCC1` [Compound 6, 3-Benzo[1,3]dioxol-5-yl-1-piperidin-1-yl-propan-1-one], the “affinity” value in experiment [1] is “lack of affinity”. Further, in experiment [3], the “protection against MES induced seizures” value is given as “protection”.

`O=C(/C=C/CCc1cc2c(cc1Cl)OCO2)N1CCCCC1` [Compound 8, trans-5-(6-Chlorobenzo[1,3]dioxol-5-yl)-1-(piperidin-1-yl)pent-2-en-1-one]: the IC50 in experiment [2] (setting [5]) and in experiment [2] (setting [6]) was 2690 ± 1390 µM throughout.

In the case of `CC(C)NC(=O)CCc1ccc2c(c1)OCO2` [Compound 10, 3-Benzo[1,3]dioxol-5-yl-N-isopropyl-propionamide], in experiment [1], the “affinity” value is recorded as “lack of affinity”. The “protection against MES induced seizures” value in experiment [3] is reported as “protection”.

`COC1=CC(=O)O[C@@H](/C=C/c2ccc3c(c2)OCO3)C1` [methysticin, Methysticin]: the “association of GABAA receptor activation with the benzodiazepine binding site” value in experiment [4] was “not to be associated with the benzodiazepine binding site”.
